Usually IC50 stands for the concentration needed to halve the response being measured.

Experimental findings from patent publication US20250136586A1, “Substituted 7-(Pyrimidin-4-yl)Quinolin-4(1H)-One Compounds as Cyclin Dependent Kinase Inhibitors” (BeiGene, Ltd., priority 2022, published 2025) are described below.

One experiment deals with CDK4/Cyclin D1 (Homo sapiens (Human), UniProt P11802). Description: TR-FRET kinase inhibition assay, CDK4/Cyclin D1. The conditions noted are these: 1 mM ATP, 0.15 μM Rb (Ser780)-biotin substrate, read-out: CDK4D1 IC50. In kind it is biochemical. The protocol: Compounds disclosed herein were tested for inhibition of CDK4/Cyclin D1 or CDK6/Cyclin D3 kinase in an assay based on the time-resolved fluorescence-resonance energy transfer (TR-FRET) methodology. […] The kinase was incubated with compound for 60 minutes at room temperature and the reaction was initiated by the addition of ATP and Rb (Ser780)-biotin substrate. After reaction at room temperature for 120 minutes, an equal volume of stop/detection solution was added according to the manufacture's instruction (Cisbio Bioassays). The stop/detection solution contained Streptavidin-XL665 and Anti-pRb (Ser780) mAb-Eu Cryptate in Detection buffer (Cisbio Bioassays). […] The inhibition percentage of CDK4/Cyclin D1 or CDK6/Cyclin D3 kinase activity in presence of increasing concentrations of compounds was calculated based on the ratio of fluorescence at 665 nm to that at 620 nm. The IC50 for each compound was derived from fitting the data to the four-parameter logistic equation by Dotmatics.
Chain of CDK4/Cyclin D1 (P11802 whole entry): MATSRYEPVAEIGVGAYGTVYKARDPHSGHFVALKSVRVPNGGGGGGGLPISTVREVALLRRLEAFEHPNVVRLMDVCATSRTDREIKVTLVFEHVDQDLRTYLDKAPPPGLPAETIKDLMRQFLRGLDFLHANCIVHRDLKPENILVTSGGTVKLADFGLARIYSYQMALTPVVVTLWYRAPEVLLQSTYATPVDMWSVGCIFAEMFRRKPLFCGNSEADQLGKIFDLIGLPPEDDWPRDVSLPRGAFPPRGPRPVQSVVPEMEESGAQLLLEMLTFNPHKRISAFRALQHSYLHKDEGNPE
Chain of CDK4/Cyclin D1 (P24385 whole entry partner): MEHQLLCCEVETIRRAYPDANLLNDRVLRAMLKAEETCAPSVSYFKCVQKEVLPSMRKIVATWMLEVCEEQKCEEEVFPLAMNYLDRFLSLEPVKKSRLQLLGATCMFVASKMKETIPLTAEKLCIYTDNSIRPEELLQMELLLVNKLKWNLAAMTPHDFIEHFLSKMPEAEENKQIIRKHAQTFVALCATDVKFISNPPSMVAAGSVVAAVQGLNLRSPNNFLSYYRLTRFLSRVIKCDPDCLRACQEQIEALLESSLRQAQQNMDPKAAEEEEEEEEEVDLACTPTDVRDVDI

The target of a further experiment is CDK6/Cyclin D3 (Homo sapiens (Human), UniProt Q00534). Description: TR-FRET kinase inhibition assay, CDK6/Cyclin D3. In kind it is biochemical. The conditions noted are these: 1 mM ATP, 0.15 μM Rb (Ser780)-biotin substrate, read-out: CDK6D3 IC50. The protocol: Compounds disclosed herein were tested for inhibition of CDK4/Cyclin D1 or CDK6/Cyclin D3 kinase in an assay based on the time-resolved fluorescence-resonance energy transfer (TR-FRET) methodology. The assay was carried out in 384-well low volume black plates in a reaction mixture containing CDK4/Cyclin D1 or CDK6/Cyclin D3, 1 mM ATP, 0.15 μM Rb (Ser780)-biotin substrate and 0-10 μM compound in buffer containing 50 mM HEPES pH7.0, 0.02% NaN3, 0.01% BSA, 0.1 mM Orthovanadate, 50 mM MgCl2, 1 mM DTT and 0.005% Tween-20. The kinase was incubated with compound for 60 minutes at room temperature and the reaction was initiated by the addition of ATP and Rb (Ser780)-biotin substrate. After reaction at room temperature for 120 minutes, an equal volume of stop/detection solution was added according to the manufacture's instruction (Cisbio Bioassays). The stop/detection solution contained Streptavidin-XL665 and Anti-pRb (Ser780) mAb-Eu Cryptate in Detection buffer (Cisbio Bioassays). Plates were incubated at room temperature for 60 minutes, and the TR-FRET signals (ex337 nm, em665 nm/620 nm) were recorded on a PHERAstar FSX plate reader (BMG Labtech). The inhibition percentage of CDK4/Cyclin D1 or CDK6/Cyclin D3 kinase activity in presence of increasing concentrations of compounds was calculated based on the ratio of fluorescence at 665 nm to that at 620 nm. The IC50 for each compound was derived from fitting the data to the four-parameter logistic equation by Dotmatics.
Chain of CDK6/Cyclin D3 (Q00534 whole entry): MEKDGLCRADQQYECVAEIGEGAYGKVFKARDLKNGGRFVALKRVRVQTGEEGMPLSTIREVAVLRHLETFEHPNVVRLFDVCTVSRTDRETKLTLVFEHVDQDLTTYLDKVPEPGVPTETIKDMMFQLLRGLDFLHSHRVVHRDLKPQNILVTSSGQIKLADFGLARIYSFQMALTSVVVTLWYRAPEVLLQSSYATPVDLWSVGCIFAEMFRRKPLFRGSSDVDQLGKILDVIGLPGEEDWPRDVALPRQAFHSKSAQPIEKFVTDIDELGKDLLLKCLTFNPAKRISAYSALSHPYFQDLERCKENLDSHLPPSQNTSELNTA
Chain of CDK6/Cyclin D3 (P30281 whole entry partner): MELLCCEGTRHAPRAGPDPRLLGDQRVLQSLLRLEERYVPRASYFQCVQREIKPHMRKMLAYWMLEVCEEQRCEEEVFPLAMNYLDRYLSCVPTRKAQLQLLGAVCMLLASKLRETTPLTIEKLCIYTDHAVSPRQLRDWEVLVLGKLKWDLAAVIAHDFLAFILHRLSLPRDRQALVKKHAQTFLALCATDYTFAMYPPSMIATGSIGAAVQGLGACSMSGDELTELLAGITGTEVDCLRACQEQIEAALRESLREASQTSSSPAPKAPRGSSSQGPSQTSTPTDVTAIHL
In general terms: Time-resolved FRET reads energy transfer from a long-lived donor to a nearby acceptor.

On to `CC(C)n1cc(C(C)(C)O)c(=O)c2ccc(-c3nc(N[C@@H]4CCOC[C@H]4O)ncc3F)cc21` [Example 5, 7-(5-fluoro-2-(((3S,4R)-3-hydroxytetrahydro-2H-pyran-4-yl)amino)pyrimidin-4-yl)-3-(2-hydroxypropan-2-yl)-1-isopropylquinolin-4(1H)-one], for which the IC50 at CDK4/Cyclin D1 was determined as 249 nM; on CDK6/Cyclin D3, 3240 nM.

On to `Cc1c(C)n(C(C)C)c2cc(-c3nc(N[C@@H]4CCOC[C@H]4O)ncc3F)ccc2c1=O` [Example 16, 7-(5-fluoro-2-(((3S,4R)-3-hydroxytetrahydro-2H-pyran-4-yl)amino)pyrimidin-4-yl)-1-isopropyl-2,3-dimethylquinolin-4(1H)-one], for which the values for the IC50 at CDK4/Cyclin D1 and on CDK6/Cyclin D3 were 8.3 nM and 257 nM, respectively.

Take `CC(C)n1c(CN2CC3CC2C3)cc(=O)c2ccc(-c3nc(N[C@@H]4CCOC[C@H]4O)ncc3F)cc21` [Example 43, 2-((2-azabicyclo[2.1.1]hexan-2-yl)methyl)-7-(5-fluoro-2-(((3S,4R)-3-hydroxytetrahydro-2H-pyran-4-yl)amino)pyrimidin-4-yl)-1-isopropylquinolin-4(1H)-one]: the values for the IC50 at CDK4/Cyclin D1 and on CDK6/Cyclin D3 were 25 nM and 1300 nM, respectively.

On to `CC(C)n1c(C(=O)NCCC#N)cc(=O)c2ccc(-c3nc(N[C@@H]4CCOC[C@H]4O)ncc3Cl)cc21` [Example 21, 7-(5-chloro-2-(((3S,4R)-3-hydroxytetrahydro-2H-pyran-4-yl)amino)pyrimidin-4-yl)-N-(2-cyanoethyl)-1-isopropyl-4-oxo-1,4-dihydroquinoline-2-carboxamide], for which the IC50 at CDK4/Cyclin D1 is 35 nM; on CDK6/Cyclin D3 it was 385 nM.

As for `Cc1c(CN2CCC[C@@H](O)C2)n(C(C)C)c2cc(-c3nc(N[C@@H]4CCOC[C@H]4O)ncc3F)ccc2c1=O` [Example 122, 7-(5-fluoro-2-(((3S,4R)-3-hydroxytetrahydro-2H-pyran-4-yl)amino)pyrimidin-4-yl)-2-(((R)-3-hydroxypiperidin-1-yl)methyl)-1-isopropyl-3-methylquinolin-4(1H)-one], the IC50 at CDK4/Cyclin D1 was determined as 1.6 nM; on CDK6/Cyclin D3, 68.8 nM.

As to `CC(=O)c1cn(C(C)C)c2cc(-c3nc(N[C@@H]4CCOC[C@H]4O)ncc3F)ccc2c1=O` [Example 4, 3-acetyl-7-(5-fluoro-2-(((3S,4R)-3-hydroxytetrahydro-2H-pyran-4-yl)amino)pyrimidin-4-yl)-1-isopropylquinolin-4(1H)-one], the IC50 at CDK4/Cyclin D1 was found to be 251 nM; at CDK6/Cyclin D3, 979 nM.

With `Cc1c(CN2CCC[C@H](O)C2)n(C(C)C)c2cc(-c3nc(N[C@@H]4CCOC[C@H]4O)ncc3F)ccc2c1=O` [Example 123, 7-(5-fluoro-2-(((3S,4R)-3-hydroxytetrahydro-2H-pyran-4-yl)amino)pyrimidin-4-yl)-2-(((S)-3-hydroxypiperidin-1-yl)methyl)-1-isopropyl-3-methylquinolin-4(1H)-one], the IC50 at CDK4/Cyclin D1 came to 4.3 nM; at CDK6/Cyclin D3, 129 nM.

For `CC(C)n1c(CN2CCC[C@H](C#N)C2)cc(=O)c2ccc(-c3nc(N[C@@H]4CCOC[C@H]4O)ncc3F)cc21` [Example 89, (S)-1-((7-(5-fluoro-2-(((3S,4R)-3-hydroxytetrahydro-2H-pyran-4-yl)amino)pyrimidin-4-yl)-1-isopropyl-4-oxo-1,4-dihydroquinolin-2-yl)methyl)piperidine-3-carbonitrile], the IC50 at CDK4/Cyclin D1 is 3.8 nM; at CDK6/Cyclin D3, 407 nM.

Consider `CC(C)n1cc(C2CC2)c(=O)c2ccc(-c3nc(N[C@@H]4CCOC[C@H]4O)ncc3F)cc21` [Example 9, 3-cyclopropyl-7-(5-fluoro-2-(((3S,4R)-3-hydroxytetrahydro-2H-pyran-4-yl)amino)pyrimidin-4-yl)-1-isopropylquinolin-4(1H)-one], for which the IC50 came out at 59 nM on CDK4/Cyclin D1 and 590 nM at CDK6/Cyclin D3.

For `CC(C)n1c(C(=O)NCC(C)(C)O)cc(=O)c2ccc(-c3nc(N[C@@H]4CCOC[C@H]4O)ncc3Cl)cc21` [Example 22, 7-(5-chloro-2-(((3S,4R)-3-hydroxytetrahydro-2H-pyran-4-yl)amino)pyrimidin-4-yl)-N-(2-hydroxy-2-methylpropyl)-1-isopropyl-4-oxo-1,4-dihydroquinoline-2-carboxamide], the IC50 came out at 49 nM at CDK4/Cyclin D1 and 931 nM on CDK6/Cyclin D3.

For `CC(C)NCc1cc(=O)c2ccc(-c3nc(N[C@@H]4CCOC[C@H]4O)ncc3F)cc2n1C(C)C` [Example 47, 7-(5-fluoro-2-(((3S,4R)-3-hydroxytetrahydro-2H-pyran-4-yl)amino)pyrimidin-4-yl)-1-isopropyl-2-((isopropylamino)methyl)quinolin-4(1H)-one], the figures for the IC50 at CDK4/Cyclin D1 and at CDK6/Cyclin D3 were 14 nM and 658 nM, respectively.

In the case of `CC(C)n1c(CN2CCC(F)(F)CC2)cc(=O)c2ccc(-c3nc(N[C@@H]4CCOC[C@H]4O)ncc3F)cc21` [Example 54, 2-((4,4-difluoropiperidin-1-yl)methyl)-7-(5-fluoro-2-(((3S,4R)-3-hydroxytetrahydro-2H-pyran-4-yl)<amino)pyrimidin-4-yl)-1-isopropylquinolin-4(1H)-one], the IC50 on CDK4/Cyclin D1 came out at 13 nM; on CDK6/Cyclin D3, 260 nM.

Turning to `Cc1c(CN2CC[C@](C)(O)C2)n(C(C)C)c2cc(-c3nc(N[C@@H]4CCOC[C@H]4O)ncc3F)ccc2c1=O` [Example 125, 7-(5-fluoro-2-(((3S,4R)-3-hydroxytetrahydro-2H-pyran-4-yl)amino)pyrimidin-4-yl)-2-(((S)-3-hydroxy-3-methylpyrrolidin-1-yl)methyl)-1-isopopyl-3-methylquinolin-4(1H)-one], the figures for the IC50 on CDK4/Cyclin D1 and at CDK6/Cyclin D3 were 15 nM and 360 nM, respectively.

Take `CC(C)n1c(CN[C@H]2CCCOC2)cc(=O)c2ccc(-c3nc(N[C@@H]4CCOC[C@H]4O)ncc3F)cc21` [Example 60, 7-(5-fluoro-2-(((3S,4R)-3-hydroxytetrahydro-2H-pyran-4-yl)amino)pyrimidin-4-yl)-1-isopropyl-2-((((S)-tetrahydro-2H-pyran-3-yl)amino)methyl)quinolin-4(1H)-one]: the IC50 at CDK4/Cyclin D1 came to 22 nM; at CDK6/Cyclin D3, 638 nM.

With `CC(C)n1c(CN2C3CCC2COC3)cc(=O)c2ccc(-c3nc(N[C@@H]4CCOC[C@H]4O)ncc3F)cc21` [Example 81, 2-((3-oxa-8-azabicyclo[3.2.1]octan-8-yl)methyl)-7-(5-fluoro-2-(((3S,4R)-3-hydroxytetrahydro-2H-pyran-4-yl)amino)pyrimidin-4-yl)-1-isopropylquinolin-4(1H)-one], the IC50 stood at 23 nM on CDK4/Cyclin D1 and 483 nM at CDK6/Cyclin D3.

Turning to `CC(C)n1c(CN2[C@@H](C)COC[C@@H]2C)cc(=O)c2ccc(-c3nc(N[C@@H]4CCOC[C@H]4O)ncc3F)cc21` [Example 93, 2-(((3S,5S)-3,5-dimethylmorpholino)methyl)-7-(5-fluoro-2-(((3S,4R)-3-hydroxytetrahydro-2H-pyran-4-yl)amino)pyrimidin-4-yl)-1-isopropylquinolin-4(1H)-one], the IC50 came out at 8.7 nM on CDK4/Cyclin D1 and 296 nM on CDK6/Cyclin D3.

As for `CC(C)n1c(CN[C@@H]2CCCOC2)cc(=O)c2ccc(-c3nc(N[C@@H]4CCOC[C@H]4O)ncc3F)cc21` [Example 59, 7-(5-fluoro-2-(((3S,4R)-3-hydroxytetrahydro-2H-pyran-4-yl)amino)pyrimidin-4-yl)-1-isopropyl-2-((((R)-tetrahydro-2H-pyran-3-yl)amino)methyl)quinolin-4(1H)-one], the IC50 is 27 nM at CDK4/Cyclin D1 and 675 nM on CDK6/Cyclin D3.

`CC(C)n1c(CN2CCC[C@]3(CCN(C)C3=O)C2)cc(=O)c2ccc(-c3nc(N[C@@H]4CCOC[C@H]4O)ncc3F)cc21` [Example 52, (S)-7-((7-(5-fluoro-2-(((3S,4R)-3-hydroxytetrahydro-2H-pyran-4-yl)amino)pyrimidin-4-yl)-1-isopropyl-4-oxo-1,4-dihydroquinolin-2-yl)methyl)-2-methyl-2,7-diazaspiro[4,5]decan-1-one]: the concentration for half-maximal inhibition (IC50) on CDK4/Cyclin D1 amounted to 6.4 nM; on CDK6/Cyclin D3, 467 nM.

With `CC(C)n1ccc(=O)c2c(Cl)cc(-c3nc(N[C@@H]4CCOC[C@H]4O)ncc3Cl)cc21` [Example 1, 5-chloro-7-(5-chloro-2-(((3S,4R)-3-hydroxytetrahydro-2H-pyran-4-yl)amino)pyrimidin-4-yl)-1-isopropylquinolin-4(1H)-one], the IC50 was 101 nM on CDK4/Cyclin D1 and 808 nM at CDK6/Cyclin D3.
